Experimental data: ChEMBL document CHEMBL5108047 (J Med Chem, 2022)

Tests used:
[1] = mouse, microsomes
Description: Metabolic stability in mouse liver microsomes assessed as clearance

[2] = target: T1, DNA polymerase theta (Homo sapiens, UniProt O75417); experiment: Inhibition of human DNA polymerase theta pol domain (1819 to 2590 residues) expressed in Escherichia coli BL21 (DE3) cells preincubated for 15 mins followed by DNA and dNTP addition and measured after 120 mins by Picogreen dye fluorescence intensity analysis
[3] = fCaverage in CD-1 mouse; format: ADME
[4] = AUC in CD-1 mouse at 20 mg/kg, po measured upto 24 hrs by reverse phase LCMS analysis; format: ADME, organism-based; parameters: time < 24 hrs, dose 20 mg/kg, route po; conditions: in vivo
[5] = Plasma protein binding in mouse assessed as unbound fraction by equilibrium dailysis; format: ADME, cell-free
[6] = target: T1, DNA polymerase theta; experiment: Inhibition of human DNA polymerase theta using DNA 16/19 as substrate at 2 nM of enzyme concentration
[7] = target: T1, DNA polymerase theta; experiment: Inhibition of human DNA polymerase theta using DNA 16/19 as substrate at 5 nM of enzyme concentration
[8] = target: T1, DNA polymerase theta; experiment: Inhibition of human DNA polymerase theta using 5'-CACTGACTGTATGATG as primer and DNA 16/19 as substrate by FRET assay
[9] = target: T1, DNA polymerase theta; experiment: Inhibition of human DNA polymerase theta using DNA 16/19 as substrate at 1 nM of enzyme concentration
[10] = target: T1, DNA polymerase theta; experiment: Inhibition of human DNA polymerase theta using DNA 16/19 as substrate at 0.5 nM of enzyme concentration

T1 sequence (O75417 whole entry, the tested form may be a part): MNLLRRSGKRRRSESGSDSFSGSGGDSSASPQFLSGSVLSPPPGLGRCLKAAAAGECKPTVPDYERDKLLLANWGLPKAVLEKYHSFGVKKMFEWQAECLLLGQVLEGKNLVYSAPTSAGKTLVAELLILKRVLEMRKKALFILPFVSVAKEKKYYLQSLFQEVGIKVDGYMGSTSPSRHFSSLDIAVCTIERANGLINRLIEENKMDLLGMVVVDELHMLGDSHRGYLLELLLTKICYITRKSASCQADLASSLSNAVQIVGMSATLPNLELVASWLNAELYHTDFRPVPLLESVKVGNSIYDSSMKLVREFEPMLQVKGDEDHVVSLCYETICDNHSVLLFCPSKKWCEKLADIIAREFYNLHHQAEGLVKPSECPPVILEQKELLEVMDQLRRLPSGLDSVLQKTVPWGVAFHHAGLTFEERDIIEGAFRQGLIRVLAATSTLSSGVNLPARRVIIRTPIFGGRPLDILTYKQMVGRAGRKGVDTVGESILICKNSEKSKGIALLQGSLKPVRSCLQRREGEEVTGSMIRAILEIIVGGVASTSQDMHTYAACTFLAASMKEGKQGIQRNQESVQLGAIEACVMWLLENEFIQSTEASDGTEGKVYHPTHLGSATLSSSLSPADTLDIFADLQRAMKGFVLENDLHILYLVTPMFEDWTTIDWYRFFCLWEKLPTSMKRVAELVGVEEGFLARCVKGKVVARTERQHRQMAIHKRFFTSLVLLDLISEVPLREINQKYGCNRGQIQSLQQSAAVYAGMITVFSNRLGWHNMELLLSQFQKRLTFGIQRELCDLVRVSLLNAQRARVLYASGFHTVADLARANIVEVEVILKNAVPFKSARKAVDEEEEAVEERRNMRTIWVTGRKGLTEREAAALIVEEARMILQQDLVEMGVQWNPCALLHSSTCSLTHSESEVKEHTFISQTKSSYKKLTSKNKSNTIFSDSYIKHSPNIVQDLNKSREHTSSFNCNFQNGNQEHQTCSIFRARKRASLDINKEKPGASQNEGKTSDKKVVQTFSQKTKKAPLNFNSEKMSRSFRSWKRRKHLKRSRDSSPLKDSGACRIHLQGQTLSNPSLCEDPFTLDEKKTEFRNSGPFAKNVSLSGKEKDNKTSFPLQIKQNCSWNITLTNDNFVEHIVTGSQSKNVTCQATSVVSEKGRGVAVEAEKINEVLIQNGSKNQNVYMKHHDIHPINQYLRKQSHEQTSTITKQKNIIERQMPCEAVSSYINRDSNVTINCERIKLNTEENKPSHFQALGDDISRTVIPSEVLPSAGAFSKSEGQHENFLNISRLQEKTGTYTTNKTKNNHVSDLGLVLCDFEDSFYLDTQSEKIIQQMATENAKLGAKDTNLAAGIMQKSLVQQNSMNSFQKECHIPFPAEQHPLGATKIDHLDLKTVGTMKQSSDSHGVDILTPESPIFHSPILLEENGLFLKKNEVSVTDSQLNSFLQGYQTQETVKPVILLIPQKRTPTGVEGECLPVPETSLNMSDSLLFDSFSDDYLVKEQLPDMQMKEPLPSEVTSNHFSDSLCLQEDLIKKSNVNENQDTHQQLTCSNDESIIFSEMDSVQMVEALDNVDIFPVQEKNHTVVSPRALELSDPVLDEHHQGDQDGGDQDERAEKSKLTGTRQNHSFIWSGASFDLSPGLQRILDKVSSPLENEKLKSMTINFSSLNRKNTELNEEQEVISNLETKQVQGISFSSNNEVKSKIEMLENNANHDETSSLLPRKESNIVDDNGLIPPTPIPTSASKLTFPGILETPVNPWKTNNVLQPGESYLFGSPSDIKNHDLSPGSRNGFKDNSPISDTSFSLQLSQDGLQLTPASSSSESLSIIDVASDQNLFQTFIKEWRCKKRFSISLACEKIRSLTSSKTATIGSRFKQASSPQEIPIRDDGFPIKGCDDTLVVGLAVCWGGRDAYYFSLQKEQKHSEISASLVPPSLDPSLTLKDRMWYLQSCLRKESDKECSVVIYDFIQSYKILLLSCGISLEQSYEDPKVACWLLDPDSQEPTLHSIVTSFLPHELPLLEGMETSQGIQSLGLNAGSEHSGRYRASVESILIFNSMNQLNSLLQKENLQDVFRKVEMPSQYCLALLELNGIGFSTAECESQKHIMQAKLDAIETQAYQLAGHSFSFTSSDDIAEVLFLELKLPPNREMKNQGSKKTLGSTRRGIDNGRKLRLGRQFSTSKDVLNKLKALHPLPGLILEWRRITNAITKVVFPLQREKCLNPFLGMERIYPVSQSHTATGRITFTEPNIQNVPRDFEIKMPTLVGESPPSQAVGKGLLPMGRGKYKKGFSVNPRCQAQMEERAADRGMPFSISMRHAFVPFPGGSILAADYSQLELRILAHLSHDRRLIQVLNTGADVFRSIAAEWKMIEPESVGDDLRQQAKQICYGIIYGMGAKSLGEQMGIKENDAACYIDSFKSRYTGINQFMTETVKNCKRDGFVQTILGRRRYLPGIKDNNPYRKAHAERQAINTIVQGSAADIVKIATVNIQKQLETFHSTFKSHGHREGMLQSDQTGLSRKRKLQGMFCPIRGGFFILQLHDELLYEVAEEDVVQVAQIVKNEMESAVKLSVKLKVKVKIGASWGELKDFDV

Row | Structure (SMILES) | CLH [1] | IC50 [2] | other results
1 | CN(C(=O)Cn1nc2c(c1C(F)(F)F)CCC2(C)C)c1ccccc1 | > 832 µL/min/mg | 2300 nM | 
2 | Nc1cnc(C#CCN(C(=O)Cc2ncc(C(F)(F)F)cc2C(F)(F)F)c2ccc(F)cc2)cn1 |  | 4.2 nM | f(Cave) [3]: 81 nM; AUC [4]: 108 µM·h; Fu [5]: 0.018
3 | Cc1c2c(nn1CC(=O)N(C)c1ccccc1)CCC2 | 473 µL/min/mg | 10000 nM | 
4 | COc1ncc(C#CCN(C(=O)Cc2ncc(C(F)(F)F)cc2C(F)(F)F)c2ccc(F)cc2)cn1 |  | 2.1 nM | f(Cave) [3]: 3 nM; AUC [4]: 7 µM·h; Fu [5]: 0.013
5 | CN(C(=O)Cn1nc2c(c1C(F)(F)F)CC(C)(C)C2)c1ccccc1 | > 555 µL/min/mg | 560 nM | 
6 | CN(C(=O)Cn1nc2c(c1C(F)(F)F)CCC2)c1ccccc1 | > 555 µL/min/mg | 710 nM | 
7 | CN(C(=O)Cc1ccc(C(F)(F)F)cc1C(F)(F)F)c1ccccn1 | > 832 µL/min/mg | 2700 nM | 
8 | C#CCN(C(=O)Cc1ccc(C(F)(F)F)cc1C(F)(F)F)c1ccccc1 | 597 µL/min/mg | 14 nM | 
9 | CN(C(=O)Cc1ccc(C(F)(F)F)cc1C(F)(F)F)c1ccncc1 | 56 µL/min/mg | 2200 nM | 
10 | CN(C(=O)Cn1nc2c(c1C(F)(F)F)C(O)CC2)c1ccccc1 (configuration not stated) | 46 µL/min/mg | > 100000 nM | 
11 | O=C(Cc1ccc(C(F)(F)F)cc1C(F)(F)F)N(CC#Cc1cccc(=O)[nH]1)c1ccccc1 | 39 µL/min/mg | 0.51 nM | 
12 | Cc1nnc(C(=O)NCC#CCN(C(=O)Cc2ccc(C(F)(F)F)cc2C(F)(F)F)c2ccccc2)o1 | 614 µL/min/mg | 0.068 nM | 
13 | O=C(Cc1ccc(C(F)(F)F)cc1C(F)(F)F)N(CC#Cc1ncccn1)c1ccccc1 | 105 µL/min/mg | 3.9 nM | 
14 | O=C(Cc1ccc(C(F)(F)F)cc1C(F)(F)F)N(CC#Cc1ccccn1)c1ccccc1 | 64 µL/min/mg | 2.9 nM | 
15 | CC(=O)NCC#CCN(C(=O)Cc1ccc(C(F)(F)F)cc1C(F)(F)F)c1ccccc1 | > 832 µL/min/mg | 0.82 nM | 
16 | CN(C(=O)Cn1nc2c(c1C(F)(F)F)C(=O)NCC2)c1ccccc1 | 18 µL/min/mg | > 100000 nM | 
17 | CC(C(N)=O)n1cc(C#CCN(C(=O)Cc2ncc(C(F)(F)F)cc2C(F)(F)F)c2ccc(F)cc2)cn1 (configuration not stated) |  | 0.99 nM | f(Cave) [3]: 49 nM; AUC [4]: 27 µM·h; Fu [5]: 0.044
18 | CN(C(=O)Cc1ncc(C(F)(F)F)cc1C(F)(F)F)c1ccccc1 |  | 65 nM | 
19 | Cn1nc(N)cc1C#CCN(C(=O)Cc1ncc(C(F)(F)F)cc1C(F)(F)F)c1ccc(F)cc1 |  | 1.7 nM | f(Cave) [3]: 65 nM; AUC [4]: 35.6 µM·h; Fu [5]: 0.044
20 | O=C(NCC#CCN(C(=O)Cc1ccc(C(F)(F)F)cc1C(F)(F)F)c1ccccc1)c1cccnc1 | 492 µL/min/mg | 0.2 nM | 
21 | CN(C(=O)Cc1ccc(Cl)cc1C(F)(F)F)c1ccccc1 |  | 121 nM | 
22 | COc1ccc(C#CCN(C(=O)Cc2ncc(C(F)(F)F)cc2C(F)(F)F)c2ccc(F)cc2)nn1 |  | 4.9 nM | f(Cave) [3]: 6 nM; AUC [4]: 27.7 µM·h
23 | CN(C(=O)Cc1ccc(C(F)(F)F)cc1C(F)(F)F)c1ccc(F)cc1 | 125 µL/min/mg | 17 nM | 

Row | Structure (SMILES) | CLH [1] | IC50 [2] | other results
24 | CN(C(=O)Cn1nc2c(c1C(F)(F)F)CCCC2)c1ccccc1 | > 555 µL/min/mg |  | 
25 | O=C(Cc1ccc(C(F)(F)F)cc1C(F)(F)F)N(CC#Cc1cccnc1)c1ccccc1 | 110 µL/min/mg | 2.5 nM | 
26 | CN(C(=O)Cc1ccc(C(F)(F)F)cc1C(F)(F)F)c1cccnc1 | 216 µL/min/mg | 3200 nM | 
27 | Cn1cnc(C#CCN(C(=O)Cc2ncc(C(F)(F)F)cc2C(F)(F)F)c2ccc(F)cc2)c1 |  | 9 nM | f(Cave) [3]: 3 nM; AUC [4]: 5.31 µM·h; Fu [5]: 0.018
28 | CN(C(=O)Cc1ccc(C2CC2)cc1C(F)(F)F)c1ccccc1 |  | 40 nM | 
29 | CN(C(=O)Cn1nc2c(c1C(F)(F)F)CS(=O)(=O)C2)c1ccccc1 | 23 µL/min/mg | 43000 nM | 
30 | CN(C(=O)Cn1nc2c(c1C(F)(F)F)CNCC2)c1ccccc1 | 16 µL/min/mg | > 100000 nM | 
31 | CC1Cc2nn(CC(=O)N(C)c3ccccc3)c(C(F)(F)F)c2C1 (configuration not stated) | > 832 µL/min/mg | 950 nM | 
32 | CS(=O)(=O)Cn1cc(C#CCN(C(=O)Cc2ncc(C(F)(F)F)cc2C(F)(F)F)c2ccc(F)cc2)cn1 |  | 0.91 nM | f(Cave) [3]: 60 nM; AUC [4]: 76.3 µM·h; Fu [5]: 0.019
33 | CN(C(=S)Cn1nc2c(c1C(F)(F)F)CCC2)c1ccccc1 | > 555 µL/min/mg | 17 nM | IC50 [6]: 8.71 nM; IC50 [7]: 11.1 nM; IC50 [8]: 10 nM; IC50 [9]: 7.49 nM; IC50 [10]: 8.48 nM
34 | CN(C(=O)Cn1nc2c(c1C(F)(F)F)C(C)(C)CC2)c1ccccc1 | > 555 µL/min/mg | 520 nM | 
35 | CN(C(=O)Cn1nc(C(F)(F)F)c2c1CCCC2)c1ccccc1 |  | 11000 nM | 
36 | O=C(NCC#CCN(C(=O)Cc1ccc(C(F)(F)F)cc1C(F)(F)F)c1ccccc1)c1ccccn1 | 469 µL/min/mg | 0.4 nM | 
37 | N#CCN(C(=O)Cc1ccc(C(F)(F)F)cc1C(F)(F)F)c1ccccc1 | 115 µL/min/mg | 42 nM | 
38 | Cn1cncc1C#CCN(C(=O)Cc1ccc(C(F)(F)F)cc1C(F)(F)F)c1ccccc1 | 57 µL/min/mg | 1.2 nM | 
39 | CN(C(=O)Cn1c(C(F)(F)F)cc(C(F)(F)F)cc1=O)c1ccccc1 |  | 58 nM | 
40 | CC1CCc2nn(CC(=O)N(C)c3ccccc3)c(C(F)(F)F)c21 (configuration not stated) | > 555 µL/min/mg | 240 nM | 
41 | O=C(Cc1ncc(C(F)(F)F)cc1C(F)(F)F)N(CC#Cc1cnn(C2CNC2)c1)c1ccc(F)cc1 |  | 0.75 nM | f(Cave) [3]: 29 nM; AUC [4]: 14.1 µM·h; Fu [5]: 0.051
42 | [2H]C([2H])([2H])N(C(=O)Cc1ccc(C(F)(F)F)cc1C(F)(F)F)c1ccc(F)cc1 | 52 µL/min/mg | 19 nM | 
43 | CN(C(=O)Cc1ccccc1C(F)(F)F)c1ccccc1 |  | 9200 nM | 
44 | O=C(Cc1ncc(C(F)(F)F)cc1C(F)(F)F)N(CC#Cc1ccc(C2CCNC2)cn1)c1ccc(F)cc1 (configuration not stated) |  | 0.72 nM | f(Cave) [3]: 30 nM; AUC [4]: 38 µM·h; Fu [5]: 0.019
45 | Nc1ncc(C#CCN(C(=O)Cc2ncc(C(F)(F)F)cc2C(F)(F)F)c2ccc(F)cc2)cn1 |  | 1.6 nM | f(Cave) [3]: 81 nM; AUC [4]: 24.7 µM·h; Fu [5]: 0.015
